# Source: US6887873B2, “Triazine derivatives and their application as antitelomerase agents” (Aventis Pharma S.A., priority 2001, dated 2005)
# Assays:
# [1] = test system: human telomerease (HL60 cell extract); experiment: Antitelomerease activity: extension of oligonucleotide TS followed by PCR amplification, with HL60 extract; type: biochemical; details: read-out: TRAP IC50
# Procedure, shortened: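 HL60 CHAPS-lysate extract extends TS primer (15 min, 30 °C) with compound at 10, 1, 0.1 and 0.01 µM, followed by 30-cycle PCR with TS and CXext. Products resolved on 12% acrylamide and quantified; % inhibition versus enzyme control and blank, IC50 read from semilog plot.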
# A549 cells = experiment: Cytotoxic activity on human tumour line A549, neutral red, 96 hours; type: cell-based; details: Homo sapiens, A549, A549; read-out: Cytotox. A549 IC50
# Method: The cytotoxic biological activity on human tumour lines is determined according to the following experimental protocol:
# The human cell lines A549 are obtained from ATCC (American Type Culture Collection, Rockville, USA). The A549 cells are cultured in a layer in a culture flask in RPMI 1640 medium containing L-glutamine at 2 mM, penicillin 200 U/ml, streptomycin 200 μg/ml and supplemented with 10% heat-inactivated foetal calf serum. The KB cells are cultured in a layer in a culture flask in Dulbelco's medium containing L-glutamine at 2 mM, penicillin 200 U/ml, streptomycin 200 μg/ml and supplemented with 10% heat-inactivated foetal calf serum.
# The cells at the exponential growth phase are trypsinized, washed in 1×PBS and are inoculated in 96-well microplates (Costar) in an amount of 4×10^4 cells/ml for A549 and of 1.5×10^4 cells/ml (0.2 ml/well) and then incubated for 96 hours in the presence of variable concentrations of product to be studied (10, 1, 0.1 and 0.01 μM, each point in quadruplicate). 16 hours before the end of the incubation, 0.02% final of neutral red is added to each well. At the end of the incubation, the cells are washed with 1×PBS and lysed with 1% sodium lauryl sulphate. The cellular incorporation of the dye, which reflects cellular growth, is evaluated by spectro-photometry at a wavelength of 540 nm for each sample with the aid of a Dynatech MR5000 reading apparatus.
# For each compound concentration tested, the results are expressed as percentage of inhibition of cellular growth and calculated from the untreated control and the culture medium free of cells (blank) according to the following formula: (compound value−blank value/cell control value−blank value)×100.
# The concentration of compound inducing a 50% inhibition of growth (IC50) is determined with the aid of a semilogarithmic graphical representation of the inhibition values obtained as a function of each of the compound concentrations tested.
# A compound is considered to be active as cytotoxic agent if the concentration inhibiting the growth of the tumour cells tested by 50% is in particular less than 10 μM.
# [2] = test system: G-quadruplex of oligonucleotide GGGTTAGGGTTAGGGTTAGGG (3.5 repeats of the human telomereic motif); experiment: G-quadruplex stabilizing activity, fluorescence Tm (FAM+DABCYL oligonucleotide); type: binding
# Procedure, shortened: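 FAM/DABCYL-labelled telomeric oligonucleotide (0.2 μM strand) in 10 mM sodium cacodylate pH 7.6 with 0.1 M LiCl (or NaCl) was annealed, then incubated ≥1 h at 20 °C with compound at 1 μM final. Samples were heated 20→80 °C, with excitation at 470 nm and emission at 515/588 nm. Tm is the 515 nm emission midpoint.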
SMILES,IC50 [1] [nM],IC50 (A549 cells) [nM],G4 delta Tm [2] [°C]
Cc1cc(N)c2cc(Nc3nc(Nc4ccc5nc(C)cc(N)c5c4)nc(N4CCN(c5ccc6ccccc6n5)CC4)n3)ccc2n1 [Example 71],350,12400,–
COc1ccc(CNc2nc(Nc3ccc4nc(C)cc(N)c4c3)nc(Nc3ccc4nc(C)cc(N)c4c3)n2)cc1 [Example 83],1200,14000,–
Cc1cc(N)c2cc(Nc3nc(NCc4ccc(N(C)C)cc4)nc(Nc4ccc5nc(C)cc(N)c5c4)n3)ccc2n1 [Example 85],3900,16000,–
Cc1cc(N)c2cc(Nc3nc(Nc4ccc5nc(C)cc(N)c5c4)nc(Nc4ccccn4)n3)ccc2n1 [Example 89],1200,20000,–
Cc1cc(N)c2cc(Nc3nc(Nc4ccc5nc(C)cc(N)c5c4)nc(Sc4ccccc4)n3)ccc2n1 [Example 117],–,19500,–
"Cc1cc(N(C)C)c2cc(Nc3nc(Nc4ccc5nc(C)cc(N(C)C)c5c4)nc(-c4ccccc4)n3)ccc2n1 [Example 134, 2,4-bis(4-dimethylamino-2-methylquinolin-6-yl)amino-6-phenyl-[1,3,5]triazine]",–,880,–
Cc1cc(N)c2cc(Nc3nc(Nc4ccc5nc(C)cc(N)c5c4)nc(N4CCC(O)CC4)n3)ccc2n1 [Example 155],390,–,14
COC(C)CNc1nc(Nc2ccc3nc(C)cc(N)c3c2)nc(Nc2ccc3nc(C)cc(N)c3c2)n1 (stereo not shown) [Example 156],1200,–,14.5
Cc1cc(N)c2cc(Nc3nc(NCCO)nc(Nc4ccc5nc(C)cc(N)c5c4)n3)ccc2n1 [Example 158],850,–,8
COCC1CCCN1c1nc(Nc2ccc3nc(C)cc(N)c3c2)nc(Nc2ccc3nc(C)cc(N)c3c2)n1 (stereo not shown) [Example 159],430,–,10.5
Cc1cc(N)c2cc(Nc3nc(Nc4ccc5nc(C)cc(N)c5c4)nc(N4CCCC(O)C4)n3)ccc2n1 (stereo not shown) [Example 160],360,–,10.5
Cc1cc(N(C)C)c2cc(Nc3nc(Nc4ccc5nc(C)cc(N(C)C)c5c4)nc(N(CCO)CCO)n3)ccc2n1 [Example 161],1900,–,12
Cc1cc(N(C)C)c2cc(Nc3nc(Nc4ccc5nc(C)cc(N(C)C)c5c4)nc(N4CCC(O)C4)n3)ccc2n1 (stereo not shown) [Example 162],1700,–,17
Cc1cc(N(C)C)c2cc(Nc3nc(Nc4ccc5nc(C)cc(N(C)C)c5c4)nc(N4CCN(CCO)CC4)n3)ccc2n1 [Example 163],1200,–,13
Cc1cc(N(C)C)c2cc(Nc3nc(Nc4ccc5nc(C)cc(N(C)C)c5c4)nc(N4CCC(O)CC4)n3)ccc2n1 [Example 164],1600,–,12.5
COC(C)CNc1nc(Nc2ccc3nc(C)cc(N(C)C)c3c2)nc(Nc2ccc3nc(C)cc(N(C)C)c3c2)n1 (stereo not shown) [Example 165],1400,–,6.5
Cc1cc(N(C)C)c2cc(Nc3nc(NCCO)nc(Nc4ccc5nc(C)cc(N(C)C)c5c4)n3)ccc2n1 [Example 167],1100,–,6
COCC1CCCN1c1nc(Nc2ccc3nc(C)cc(N(C)C)c3c2)nc(Nc2ccc3nc(C)cc(N(C)C)c3c2)n1 (stereo not shown) [Example 168],1100,–,16.5
Cc1cc(N(C)C)c2cc(Nc3nc(Nc4ccc5nc(C)cc(N(C)C)c5c4)nc(N4CCCC(O)C4)n3)ccc2n1 (stereo not shown) [Example 169],700,–,16.5
Cc1cc(N(C)C)c2cc(Nc3nc(Nc4ccc5nc(C)cc(N(C)C)c5c4)nc(NC(CO)CO)n3)ccc2n1 [Example 170],1300,–,3
Cc1cc(N(C)C)c2cc(Nc3nc(Nc4ccc5nc(C)cc(N(C)C)c5c4)nc(NC(CO)C(=O)O)n3)ccc2n1 (stereo not shown) [Example 171],490,–,13
Cc1cc(N)c2cc(Nc3nc(Nc4ccc5nc(C)cc(N)c5c4)nc(NC(CO)CO)n3)ccc2n1 [Example 173],620,–,11.5
Cc1cc(N(C)C)c2cc(Nc3nc(Nc4ccc5nc(C)cc(N(C)C)c5c4)nc(NC(C)CO)n3)ccc2n1 (stereo not shown) [Example 175],3000,–,3
Cc1cc(N(C)C)c2cc(Nc3nc(NCC(O)CO)nc(Nc4ccc5nc(C)cc(N(C)C)c5c4)n3)ccc2n1 (stereo not shown) [Example 176],3000,–,6
